Assay results reported in a melting point compilation (Tetko et al.; mined from patent text by program, amines drawn as free bases though some values may be those of a salt).

Compound | melting point
N#CCCOC(=O)C=C1C=C(c2ccccc2)S(=O)(=O)C(c2ccccc2)=C1 | 156 to 157 °C
O=C(NCCOCc1ccc(C(=O)c2ccccc2)cc1)Nc1ccccc1 | 129 to 132 °C
O=c1cnc2c([nH]1)-c1ccccc1C2=NO | > 300 °C
COc1c(C)c(NC(=O)NCCO)c(C)c2c1OCC2c1ccc(C(C)C)cc1 (stereo not given) | 127 to 129 °C
COc1ccc(C(C)=O)cc1C=CC(=O)O | 203 °C
Cc1c(NC(=O)CC(CSC(=O)COc2ccccc2)c2ccccc2)cccc1C(=O)O (stereo not given) | 130 to 132 °C
COC(=O)c1ccc([N+](=O)[O-])c([N+](=O)[O-])c1 | 85 to 86 °C
CCOc1ccc2c(c1)C(=O)OC2C(Cl)(Cl)Cl (stereo not given) | 112 to 114 °C
CCCc1c(OCC(=N)OCC)ccc(C(C)=O)c1O | 50 to 52 °C
CCOC(=O)C(=CNC1CC1)C(=O)c1cc(F)c(F)c(Cl)c1F | 78 to 80 °C
CC(C)(C)c1cc(CCc2ccccc2NC(=O)NC2CCN(Cc3ccccn3)CC2)cc(C(C)(C)C)c1O | 106 to 109 °C
CCOCc1cc(C(C)(C)C)cc(COCC)c1SSc1c(COCC)cc(C(C)(C)C)cc1COCC | 62 to 63 °C
CCC=CCn1c(C)c(C)c2cnnc(OCc3ccccc3)c21 | 92 to 93 °C
O=C1Nc2ccc(Cl)c(Cl)c2C(=O)N2CCC[C@@H]12 | 203 to 205 °C
Cn1c(=O)c2c(OCc3ccccc3)cccc2n2cnc(-c3noc(C4CC4)n3)c12 | 221 to 224 °C
CCCCc1nc2c(N)nc3ccccc3c2n1CCCNC(=O)Nc1ccccc1 | 191 to 192 °C
COCc1cc(C(=O)CBr)on1 | 53 to 54 °C
COc1ccc(-c2cnc3nccn3c2)cc1OC1CC2CCC1C2 (stereo not given) | 130 °C
O=C1c2c(O)ccc(O)c2C(=O)c2c(NCCN3CCCC3)ccc(NCCN3CCCC3)c21 | 193 to 196 °C
CCCCC/C(=C/C=C/C(=O)Oc1ccc([N+](=O)[O-])cc1)c1cccc(F)c1 | 50 to 51 °C
CNC(=O)N1N=C(c2ccc([N+](=O)[O-])c(C)c2)c2cc(Cl)ccc2C=C1C | 196 to 198 °C
O=C(O)C1Oc2cc(Cl)c(S(=O)(=O)c3ccc4c(c3)OCO4)cc2O1 (stereo not given) | 182 to 184 °C
COc1ccc(CN2C(=O)[C@H](N3C(=O)c4ccccc4C3=O)[C@@H]2C(=O)OCc2ccccc2)c(OC)c1 (relative stereo) | 198 to 200 °C
CCCCNC(=S)c1ccc2c(c1)N(C(C)CN(C)C)c1ccccc1S2 (racemic) | 154 °C
COC(=O)C1=CCC(NC(C)=O)C1 (stereo not given) | 72 to 74 °C

Compound | melting point
Cc1c(C#N)ccc([N+](=O)[O-])c1C#N | 122 to 124 °C
CC(C)(c1ccccc1)N1CCC=C(c2ccccc2)C1=O | 119 to 120 °C
C#CCN(C(=O)OC(C)(C)C)c1cn(-c2cncc(F)c2)nc1C | 81 to 82 °C
O=S1(=O)c2cccc3cccc(c23)N1CCCN1CCN(c2nsc3ccccc23)CC1 | 172 to 173 °C
Cc1cc(Oc2ccc([N+](=O)[O-])c(F)c2)n[nH]1 | 80 to 83 °C
COc1ccc(C2=NN(C3CCN(C(=O)NC(C)(C)C)CC3)C(=O)[C@@H]3CC=CC[C@H]23)cc1OC | 164 to 166 °C
CN(C)c1ccc([N+](=O)[O-])c(C(OC(=O)C(Cl)(Cl)Cl)c2ccccc2)c1[N+](=O)[O-] (stereo not given) | 129 to 130 °C
CC(C)(C)OC(=O)N[C@H](Cc1cccc(OC(F)(F)C(F)F)c1)[C@@H](O)c1csc(-c2ccccc2)n1 (racemic) | 127 to 128 °C
O=C(c1c(F)cccc1F)N1CN(c2ccccc2)CN(c2ccc(Cl)cc2)C1=O | 166 to 168 °C
COc1cc(OC)c(C(C)=O)c(O)c1CC=C(C)C | 110 to 111 °C
OCCCCc1cn(C(c2ccccc2)(c2ccccc2)c2ccccc2)cn1 | 144 to 146 °C
Cc1ccc(-c2c(NS(=O)(=O)c3ccc(C(C)(C)C)cc3)ncnc2OCCOc2ncc(C#CC(C)(C)O)cn2)cc1 | 172 to 174 °C
CCCc1nnc2c3cccc(Br)c3ccn12 | 197 to 199 °C
S=C1Nc2ccccc2Cn2cccc21 | 228 to 231 °C
CON(C)C(=O)/C=C/c1c(C2CC2)nc2ccccc2c1-c1ccc(F)cc1 | 141 °C
CCOC(=O)N1C(=NC#N)NC(C)=C(C(=O)OC)C1c1cccc(Cl)c1Cl (stereo not given) | 176 to 178 °C
CCOP(=O)(OCC)Oc1ccc(/C=C2/C(=O)Nc3cc(OC)c(OC)cc32)cc1 | 139 to 141 °C
COc1cc(C2c3cc4c(cc3C(NC3=CC(=O)N(Cc5ccc(NC(C)=O)cc5)C3=O)C3COC(=O)C23)OCO4)cc(OC)c1O[Si](C)(C)C(C)(C)C (stereo not given) | 177 to 179 °C
CC(C)=NOCc1nc2c(N)nc3ccccc3c2n1CCCNS(C)(=O)=O | 178 to 179 °C
CCOC(=O)Cn1c(=S)n(Cc2ccc(Cl)c(Cl)c2)c(=S)c2ccccc21 | 155 to 156 °C
COC(=O)c1cc2cc(SCc3sc(-c4ccc(C(F)(F)F)cc4)nc3C)ccc2o1 | 132 to 133 °C
Nc1ccc(C#CCCN2CC=C(c3ccccc3)CC2)nc1 | 136 to 137 °C
Cc1ccc(S(=O)(=O)OCC(O)Cc2cc(Cl)c3ccccc3c2OCc2ccccc2)cc1 (stereo not given) | 85 to 87 °C
O=C(O)/C=C/c1ccc(OCCOC2CC2)cc1Oc1ncc(C(F)(F)F)cc1Cl | 147 to 150 °C

Other lines, results leading:

melting point | Compound
55 to 56 °C | CC(=O)C(c1ccccc1)c1cccc2c1NCC2 (stereo not given)
250 °C | Oc1ccc2ccccc2c1N=Nc1ccc2[nH]nnc2c1
241 to 244 °C | Oc1ccc(Nc2cc(Cl)ncn2)cc1
155 to 156 °C | CC(O)c1ccc(CCOc2ccc(CC3SC(=O)NC3=O)cc2)nc1 (stereo not given)
246 to 248 °C | COc1cc(O)cc(Cc2cnc(N)nc2N)c1
110 to 111 °C | Fc1ccccc1-c1nc2cnccc2o1
91 to 92 °C | COC(=O)c1ccc(CNC(=O)OCc2ccccc2)cc1O
126 to 127 °C | CC(C)c1ccc(C2c3cc(NC(=O)CC(C)(C)C)ccc3OC2(C)C)cc1 (stereo not given)
194 to 196 °C | Nc1c(Nc2ccc(O)cc2)ncnc1-c1ccc(C(F)(F)F)cc1F
154 to 157 °C | Clc1ncc(-c2ccsc2)cn1
95 to 97 °C | COC(=O)c1ccc(O)c(C(=O)CC(=O)c2ccccc2OCc2ccccc2)c1
220 to 224 °C | O=C(O)c1cccc(NC(=O)[C@H](CO)NS(=O)(=O)c2ccc(Cl)cc2)c1
108 to 111 °C | OC(c1cccnc1)c1ccc(Cl)cc1Cl (stereo not given)
209 to 212 °C | Cn1ccc(=O)c(O)c1Cc1cccnc1
94 to 95 °C | CC1CCc2ccc(O)cc2O1 (stereo not given)
155 to 157 °C | COc1ccc(NC(=O)NCC2(c3ccccc3)CCCCC2)cc1
170 to 183 °C | CN(C)CCNCc1ccc(-c2cc3ncnc(Nc4ccc5[nH]ccc5c4)c3s2)cc1
126 °C | Cc1oc(-c2cccs2)nc1CCOc1ccc([N+](=O)[O-])cn1
230 to 233 °C | CCOC(=O)c1ccc(Nc2nc(=O)c3cccnc3s2)cc1
172 to 173 °C | CN1Cc2cccnc2N(c2ccccc2)C1=O
43 to 44 °C | CC=C(c1ccc(F)cc1)c1ccc(F)cc1
